{"source": "paper PMC9436767", "about": "“Optical control of the β2-adrenergic receptor with opto-prop-2: A cis-active azobenzene analog of propranolol” (iScience, 2022)", "key": {"[1]": {"assay": "Cis-to-trans thermal relaxation, Arrhenius extrapolation", "format": "physicochemical", "conditions": "PSScis sample 25 μM in HBSS buffer with 1% DMSO; Arrhenius extrapolation to 20 °C", "description": "(§1) Solubility in buffer was explored for all compounds using nephelometry ([Bevan and Lloyd, 2000]) and these studies indicate good solubility of all azobenzene photoswiches up to at least 100 μM (Figure S1). […] For all compounds, 360 nm induces a large change in absorbance spectrum compared with the non-illuminated (dark) compounds (Table 1, Figure 2A, and S1), indicating photoisomerization to the cis-isomer. The absorbance peak (λmax) of Opto-prop-1-3 ranged between 319 and 347 nm for the trans-isomers and between 423 and 429 for the cis-isomers (Table 1), as is typical for azobenzene compounds ([Hauwert et al., 2018]). […] The photochemical conversions were determined by continuous illumination of the Opto-prop compounds with near UV-light (360 ± 20 nm) as 10-mM solutions in DMSO. Based on LCMS analysis, it was observed that all compounds obtained a high level of conversion to the cis-isomer with a photostationary state (PSS) of >88 area % cis-isomer (i.e. PSScis; Table 1). Subsequent back-switching to PSStrans with 434 nm maintained 22–29 area % cis-isomer (Table 1). The thermal relaxation of the PSScis state of the photoswitchable ligands was monitored over time by measuring absorbance at 254 nm. Only minor thermal relaxation to the trans-isomer could be detected at 20°C (not shown). An estimate of the relaxation rate at 20 °C was determined using a method by Priimagi et al. ([Ahmed et al., 2017]), which was performed in Hanks’ balanced salt solution (HBSS) using increased temperatures to enhance the speed of thermal relaxation. The Opto-prop ligands are all very stable as cis-isomer after illumination, with thermal relaxation half-lives of >10 days at 20 °C (See Table 1 and Figure S1).\nCis-to-trans thermal relaxations were performed in the dark at 25 μM of the PSS360 state of the Opto-prop-1, -2 or -3 in HBSS buffer with 1% DMSO at various temperatures (60°C, 70°C and 80°C). Absorbance was repeatedly measured at 320, 320 and 347 nm for Opto-prop-1, -2 or -3, respectively, with 60 s intervals."}, "[2]": {"assay": "PSScis and PSStrans by LC analysis", "format": "physicochemical", "conditions": "LCMS area at isosbestic wavelength", "description": "as §1\nFor the determination of PSScis and PSStrans values by LC analysis (Table 1), a solution of the compound in DMSO (10 mM) was illuminated to PSScis with 360 nm and subsequently to PSStrans with 434 nm. PSS aliquots were withdrawn, diluted with MeCN and subjected to LCMS analysis with the corresponding isosbestic points wavelength: 278, 263 and 308 nm for Opto-prop-1-3, respectively."}}, "note": "Several values for one entry are separate records, joined by “and”; a condition that tells them apart may be missing. Identical values can stand only once."}
{"smiles": "CC(C)NCC(O)COc1cccc(N=Nc2ccccc2)c1", "note": "(stereo not drawn) [Opto-prop-2]", "values": [{"measurement": "t1/2 20°C (thermal relaxation of cis-isomer)", "setting": "[1]", "value": ">240", "unit": "h"}, {"measurement": "PSScis (% cis-isomer)", "setting": "[2]; 10 mM in DMSO after illumination with 360 nm", "value": "92.8 ± 0.4", "unit": "% cis-isomer"}, {"measurement": "PSStrans (% cis-isomer)", "setting": "[2]; 10 mM in DMSO, 360 nm then 434 nm", "value": "26 % cis-isomer and 25.9 ± 0.4 % cis-isomer"}]}
